pIC50: −log10 of the molar value. Structures can show the parent of a compound that is named as a salt.
Biological target: human D3 dopamine receptors (Homo sapiens, UniProt P35462)
Experiment: [125I] iodosulpride displacement binding to cloned dopamine receptors expressed in CHO cells
Conditions: displacement of 0.1 nM [125I] iodosulpride, cloned receptor in CHO cell membranes, 30 min at 37° C.
Procedure: The inhibition constants (Ki) of test compounds for displacement of [^125 I] iodosulpride binding to human D2 and D3 dopamine receptors expressed in CHO cells have been determined. […] Cultures were grown as monolayers or in suspension in standard cell culture media. Cells were recovered by scraping (from monolayers) or by centrifugation (from suspension cultures), and were washed two or three times by suspension in phosphate buffered saline followed by collection by centrifugation. Cell pellets were stored frozen at -40° C. Crude cell membranes were prepared by homogenisation followed by high-speed centrifugation, and characterisation of cloned receptors achieved by radioligand binding.
Cell pellets were gently thawed at room temperature, and resuspended in about 20 volumes of ice-cold 50 mM Tris salts (pH 7.4 @37° C.), 20 mM EDTA, 0.2M sucrose. The suspension was homogenised using an Ultra-Turrax at full speed for 15 sec. The homogenate was centrifuged at 18,000 r.p.m for 20 min at 4° C. in a Sorvall RC5C centrifuge. The membrane pellet was resuspended in ice-cold 50 mM Tris salts (pH 7.4 @37° C.), using an Ultra-Turrax, and recentrifuged at 18,000 r.p.m for 15 min at 4° C. in a Sorvall RC5C. The membranes were washed two more times with ice-cold 50 mM Tris salts (pH 7.4 @37° C.). The final pellet was resuspended in 50 mM Tris salts (pH 7.4 @37° C.), and the protein content determined using bovine serum albumin as a standard (Bradford, M. M. (1976) Anal. Biochem. 72, 248-254).
Crude cell membranes were incubated with 0.1 nM [^125 I] iodosulpride (~2000 Ci/mmol; Amersham, U.K.), and the test compound in a buffer containing 50 mM Tris salts (pH 7.4 @37° C.), 120 mM NaCl, 5 mM KCl, 2 mM CaCl2, 1 mM MgCl2, 0.1% (w/v) bovine serum albumin, in a total volume of 1 ml for 30 min at 37° C. Following incubation, samples were filtered using a Brandel Cell Harvester, and washed three times with ice-cold 50 mM Tris salts (pH 7.4 @37° C.), 120 mM NaCl5 mM KCl2 mM CaCl2, 1 mM MgCl2. The radioactivity on the filters was measured using a Cobra gamma counter (Canberra Packard). Non-specific binding was defined as the radioligand binding remaining after incubation in the presence of 100 μM iodosulpride. For competition curves, 14 concentrations (half-log dilutions) of competing cold drug were used.
Competition curves were analysed simultaneously whenever possible using non-linear least-squares fitting procedures, capable of fitting one, two or three site models.

Sequence of human D3 dopamine receptors (P35462 whole entry): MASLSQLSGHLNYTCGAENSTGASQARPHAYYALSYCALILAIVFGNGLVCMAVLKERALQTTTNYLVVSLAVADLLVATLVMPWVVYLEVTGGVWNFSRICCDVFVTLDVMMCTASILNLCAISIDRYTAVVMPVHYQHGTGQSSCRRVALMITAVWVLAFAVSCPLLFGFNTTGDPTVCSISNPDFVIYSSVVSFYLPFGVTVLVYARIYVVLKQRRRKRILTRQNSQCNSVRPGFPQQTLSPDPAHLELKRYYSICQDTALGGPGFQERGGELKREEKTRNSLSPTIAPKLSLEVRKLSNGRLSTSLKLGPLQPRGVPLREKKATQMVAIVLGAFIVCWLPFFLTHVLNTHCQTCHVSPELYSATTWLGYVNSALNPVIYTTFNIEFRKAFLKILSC

pIC50 | SMILES
7.59 to 9.70 | CCS(=O)(=O)c1ccc(OC)c(-c2ccc(CN3CCCCC3)[nH]2)c1 [Example 2, 2-(5-Ethylsulphonyl-2-methoxyphenyl)-5-(1-piperidinylmethyl)-1H-pyrrole]
7.59 to 9.70 | COc1c(Br)cc(Br)cc1-c1ccc(CN2CCCCC2)[nH]1 [Example 1, 2-(3,5-Dibromo-2-methoxyphenyl)-5-(1-piperidinylmethyl)-1H-pyrrole hydrochloride]
7.59 to 9.70 | COc1cc(Br)cc(-c2ccc(C(C)N3CCCCC3)[nH]2)c1OC (stereo not shown) [Example 36, 2-(2,3-Dimethoxy-5-bromophenyl)-5-[1-(1-piperidinyl)ethyl]-1H-pyrrole hydrochloride]
7.59 to 9.70 | CCS(=O)(=O)c1ccc(OC)c(-c2ccc(C(C)N3CCCCC3)[nH]2)c1 (single isomer, unassigned; slower eluting) [Example 49, 2-(5-Ethylsulphonyl-2-methoxyphenyl)-5-[1-(1-piperidinyl)-ethyl)-1H-pyrrole, slower eluting enantiomer]
7.59 to 9.70 | CCS(=O)(=O)c1ccc(OC)c(-c2ccc(C(C)N3CCCCC3)[nH]2)c1 (stereo not shown) [Example 16, 2-(5-Ethylsulphonyl-2-methoxyphenyl)-5-[1-(1-piperidinyl)-ethyl)-1H-pyrrolehydrochloride]
7.59 to 9.70 | CCN(Cc1ccccc1)Cc1ccc(-c2cc(S(=O)(=O)CC)ccc2OC)[nH]1 [Example 27, 2-(5-Ethylsulphonyl-2-methoxyphenyl)-5-(N-benzyl-N-ethyl)-aminomethyl-1H-pyrrole hydrochloride]
7.59 to 9.70 | CCN(Cc1ccccc1)Cc1ccc(-c2cc(S(=O)(=O)CC)cc(Br)c2OC)[nH]1 [Example 30, 2-(3-Bromo-5-ethylsulphonyl-2-methoxyphenyl)-5-(N-benzyl-N-ethyl)aminomethyl-1H-pyrrole hydrochloride]

Source: patent US5523299A, “5-(2-oxyphenyl)-pyrrole derivatives as dopamine D3 receptor antagonists” (SmithKline Beecham PLC, priority 1992, dated 1996)
